Data reported in article PMC3004257, “Purine nucleoside phosphorylase from Schistosoma mansoni in complex with ribose-1-phosphate” (Journal of Synchrotron Radiation, 2010).

Key:
[1] = molecular target: T1, SmPNP (Schistosoma mansoni purine nucleoside phosphorylase) (Schistosoma mansoni, UniProt Q9BMI9); assay: X-ray crystallography, crystal soaking, […] Å; assay type: binding; details: 5 mM R1P soak up to 48 h, 20% PEG 1500, 15 mM sodium acetate pH 4.9 or 5.0, 20% glycerol; phosphate and ribose sites of all three subunits; acetate in base site
T1 construct: low-molecular-mass homotrimer
T1 sequence (Q9BMI9 1-287): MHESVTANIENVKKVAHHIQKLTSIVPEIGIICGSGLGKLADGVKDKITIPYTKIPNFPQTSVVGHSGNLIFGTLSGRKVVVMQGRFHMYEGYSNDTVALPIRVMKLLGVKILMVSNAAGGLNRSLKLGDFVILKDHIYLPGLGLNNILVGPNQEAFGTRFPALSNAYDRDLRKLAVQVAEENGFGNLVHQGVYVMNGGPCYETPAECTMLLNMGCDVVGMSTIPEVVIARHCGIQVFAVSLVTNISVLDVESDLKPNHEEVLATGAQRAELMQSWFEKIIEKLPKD

[2] = molecular target: T1, SmPNP (Schistosoma mansoni purine nucleoside phosphorylase); assay: X-ray crystallography, crystal soaking; details: soaking aimed at ternary complex with R1P; base binding site

Row | SMILES | X-ray crystallography, crystal soaking, 2.0 Å [1] | X-ray crystallography, crystal soaking [2]
1 | O=P(O)(O)O[C@H]1O[C@H](CO)[C@@H](O)[C@H]1O [ribose-1-phosphate] | we have been able to obtain the elusive binary complex of SmPNP with R1P | 
2 | O=c1[nH]cnc2nc[nH]c12 [hypoxanthine] |  | by soaking were unsuccessful, SmPNP–hypoxanthine complexes being obtained instead
